pIC50: −log10 of the molar value. Where two headings read alike, the source gives them in different places. Where a SMILES comes first, the peptide text is derived from it. Where no end group is shown, it is not given here.
How the values were obtained:
[1] = target: DRB1*0301 (DR3) (Homo sapiens, UniProt P01903+P01911, A100K/A102G/A103R/A169T/F55Y/I96L/K41T/L162R/M171V/P40S/Q125H/Q178H/Q39Y/R42S/S66N/T106N/T262R/W38E/Y61H); test: HLA class II peptide binding assay, purified HLA; settings: unit not given
[2] = target: HLA-B*0702 (Homo sapiens, UniProt P01889); type: binding
[3] = tested on: B7-supertype molecules (B*0702, B*3501, B*5101, B*5301, B*5401); test: B7-supertype cross-reactive binding; set-up: species or system human; settings: of five B7-supertype alleles tested
[4] = Table XIX, DR supermotif peptides
[5] = Table XXa, DR 3a motif peptides
[6] = Table XXIV, B7 supermotif peptides

CSCC[C@H](NC(=O)CNC(=O)[C@H](CC(C)C)NC(=O)CNC(=O)[C@H](Cc1ccc(O)cc1)NC(=O)[C@@H](N)CS)C(=O)N[C@@H](CCC(=O)O)C(=O)N[C@@H](Cc1c[nH]cn1)C(=O)N[C@@H](CC(C)C)C(=O)N[C@@H](CCCNC(=N)N)C(=O)N[C@@H](CCC(=O)O)C(=O)N[C@H](C(=O)N[C@@H](CCCNC(=N)N)C(=O)N[C@@H](C)C(=O)N[C@H](C(=O)O)C(C)C)C(C)C
DR3 binding data [1, 4]: 0.0083 | DR3 binding data [1, 5]: 0.0083

CSCC[C@H](NC(=O)[C@H](CCCNC(=N)N)NC(=O)[C@H](CO)NC(=O)[C@H](Cc1ccccc1)NC(=O)[C@H](CCC(=O)O)NC(=O)[C@H](CO)NC(=O)[C@@H](NC(=O)[C@H](CC(C)C)NC(=O)[C@H](CCC(=O)O)NC(=O)[C@H](CCCNC(=N)N)NC(=O)[C@@H](N)Cc1ccccc1)C(C)C)C(=O)N[C@@H](C)C(=O)N[C@@H](CCCNC(=N)N)C(=O)N[C@@H](CC(=O)O)C(=O)N1CCC[C@H]1C(=O)O
DR3 binding data [1, 4]: 0.0710 | DR3 binding data [1, 5]: 0.0710

CC[C@H](C)[C@H](NC(=O)[C@@H](NC(=O)[C@@H](NC(=O)[C@H](Cc1ccccc1)NC(=O)[C@H](CCCNC(=N)N)NC(=O)[C@H](CCC(N)=O)NC(=O)[C@@H]1CCCN1C(=O)[C@H](CC(=O)O)NC(=O)[C@H](CCCNC(=N)N)NC(=O)[C@H](C)NC(=O)[C@H](CCSC)NC(=O)[C@H](CCCNC(=N)N)NC(=O)[C@H](CO)NC(=O)[C@@H](N)Cc1ccccc1)C(C)C)C(C)C)C(=O)N[C@@H](CCC(N)=O)C(=O)O
DR3 binding data [1, 5]: 0.1600

CC(C)C[C@H](NC(=O)[C@H](C)NC(=O)[C@H](Cc1ccc(O)cc1)NC(=O)[C@H](CC(N)=O)NC(=O)[C@H](CC(=O)O)NC(=O)[C@H](CCC(=O)O)NC(=O)[C@H](Cc1ccccc1)NC(=O)[C@H](CC(C)C)NC(=O)[C@H](CCC(N)=O)NC(=O)[C@@H](NC(=O)CN)[C@@H](C)O)C(=O)N[C@@H](C)C(=O)N[C@H](C(=O)N[C@@H](CC(C)C)C(=O)N[C@@H](CC(=O)O)C(=O)O)C(C)C
DR3 binding data [1, 5]: 0.2200

CC(C)C[C@H](NC(=O)[C@H](CS)NC(=O)[C@H](Cc1c[nH]cn1)NC(=O)[C@H](CCCNC(=N)N)NC(=O)[C@H](C)NC(=O)[C@H](CC(N)=O)NC(=O)[C@@H](NC(=O)[C@H](Cc1ccc(O)cc1)NC(=O)[C@H](CCC(=O)O)NC(=O)[C@H](CCCNC(=N)N)NC(=O)[C@@H]1CCCN1C(=O)[C@H](CC(C)C)NC(=O)CNC(=O)[C@H](CCC(N)=O)NC(=O)[C@@H](N)CC(C)C)C(C)C)C(=O)O
DR3 binding data [1, 4]: −0.0027 | DR3 binding data [1, 5]: −0.0027

CC(C)C[C@H](NC(=O)[C@@H]1CCCN1C(=O)[C@@H](NC(=O)[C@@H](NC(=O)[C@@H]1CCCN1C(=O)[C@H](CC(=O)O)NC(=O)[C@H](CCC(=O)O)NC(=O)[C@H](CO)NC(=O)[C@H](Cc1ccc(O)cc1)NC(=O)[C@H](CCCNC(=N)N)NC(=O)[C@H](CCC(N)=O)NC(=O)[C@@H](N)CC(C)C)[C@@H](C)O)C(C)C)C(=O)N1CCC[C@H]1C(=O)N[C@@H](CO)C(=O)N[C@@H](CCC(=O)O)C(=O)O
DR3 binding data [1, 4]: 0.0270 | DR3 binding data [1, 5]: 0.0270

CSCC[C@H](NC(=O)[C@H](CC(=O)O)NC(=O)[C@H](CC(=O)O)NC(=O)[C@H](CC(=O)O)NC(=O)[C@H](CCC(=O)O)NC(=O)[C@H](CC(C)C)NC(=O)[C@H](CC(C)C)NC(=O)[C@H](CO)NC(=O)[C@H](CCCNC(=N)N)NC(=O)[C@@H](N)Cc1ccc(O)cc1)C(=O)NCC(=O)N[C@@H](CC(=O)O)C(=O)N[C@@H](CC(C)C)C(=O)N[C@H](C(=O)N[C@@H](CC(=O)O)C(=O)O)C(C)C
DR3 binding data [1, 5]: 0.0630

CC[C@H](C)[C@H](NC(=O)[C@H](CO)NC(=O)[C@H](CC(C)C)NC(=O)[C@H](CO)NC(=O)[C@H](C)NC(=O)[C@H](CC(N)=O)NC(=O)[C@@H](NC(=O)[C@@H]1CCCN1C(=O)[C@@H](N)Cc1ccccc1)[C@@H](C)O)C(=O)O [Her2/neu.65.F1I9]
pIC50 [2, 6]: 8.34

CC[C@H](C)[C@H](NC(=O)[C@H](Cc1ccccc1)NC(=O)[C@H](CO)NC(=O)[C@H](CC(C)C)NC(=O)[C@H](CO)NC(=O)[C@H](C)NC(=O)[C@H](CC(N)=O)NC(=O)[C@@H](NC(=O)[C@@H]1CCCN1C(=O)[C@@H](N)Cc1ccccc1)[C@@H](C)O)C(=O)O [Her2/neu.65.F1I10]
pIC50 [2, 6]: 6.92

CC[C@H](C)[C@H](NC(=O)[C@@H]1CCCN1C(=O)[C@@H](NC(=O)[C@@H](NC(=O)[C@H](CC(N)=O)NC(=O)[C@H](CC(N)=O)NC(=O)[C@H](CC(C)C)NC(=O)[C@@H]1CCCN1C(=O)[C@@H](N)Cc1ccccc1)[C@@H](C)O)[C@@H](C)O)C(=O)O [Her2/neu.121.F1I9]
pIC50 [2, 6]: 8.80

CC[C@H](C)[C@H](NC(=O)[C@H](CS)NC(=O)[C@H](CCCNC(=N)N)NC(=O)[C@H](CO)NC(=O)CNC(=O)[C@H](CCCCN)NC(=O)[C@H](CS)NC(=O)[C@H](CCSC)NC(=O)[C@@H]1CCCN1C(=O)[C@@H](N)Cc1ccccc1)C(=O)O [Her2/neu.196.F1] (H-FPMCKGSRCI-OH; N-terminus and C-terminus assumed)
No. of B7 Alleles Crossbound [3]: 3

CC[C@H](C)[C@H](NC(=O)[C@@H](NC(=O)[C@H](Cc1ccc(O)cc1)NC(=O)[C@H](CCCNC(=N)N)NC(=O)CNC(=O)[C@H](CCC(=O)O)NC(=O)[C@@H]1CCCN1C(=O)[C@H](CC(N)=O)NC(=O)[C@@H]1CCCN1C(=O)[C@@H](N)Cc1ccccc1)[C@@H](C)O)C(=O)O [Her2/neu.282.F1]
pIC50 [2, 6]: 6.49 | No. of B7 Alleles Crossbound [3]: 5

CC[C@H](C)[C@H](NC(=O)[C@@H](NC(=O)[C@H](Cc1ccc(O)cc1)NC(=O)[C@H](CCCNC(=N)N)NC(=O)CNC(=O)[C@H](CCC(=O)O)NC(=O)[C@@H]1CCCN1C(=O)[C@H](CC(N)=O)NC(=O)[C@@H]1CCCN1C(=O)[C@@H](N)CCSC)[C@@H](C)O)C(=O)O [Her2/neu.282.I10]
pIC50 [2, 6]: 7.47 | No. of B7 Alleles Crossbound [3]: 5

CC[C@H](C)[C@H](NC(=O)[C@@H](NC(=O)[C@@H](NC(=O)[C@H](CCC(=O)O)NC(=O)[C@H](CCC(N)=O)NC(=O)[C@H](CC(N)=O)NC(=O)[C@H](Cc1c[nH]cn1)NC(=O)[C@H](CC(C)C)NC(=O)[C@@H]1CCCN1C(=O)[C@@H](N)CS)C(C)C)[C@@H](C)O)C(=O)O [Her2/neu.315.I10]
pIC50 [2, 6]: 6.34 | No. of B7 Alleles Crossbound [3]: 3

CC(C)C[C@H](NC(=O)CNC(=O)[C@H](Cc1ccc(O)cc1)NC(=O)[C@H](CS)NC(=O)[C@@H](NC(=O)[C@H](CCCNC(=N)N)NC(=O)[C@H](C)NC(=O)[C@H](CS)NC(=O)[C@@H]1CCCN1C(=O)[C@@H](N)Cc1ccccc1)C(C)C)C(=O)O [Her2/neu.336.F1]
pIC50 [2, 6]: 6.72 | No. of B7 Alleles Crossbound [3]: 3

CC(C)C[C@H](NC(=O)CNC(=O)[C@H](Cc1ccc(O)cc1)NC(=O)[C@H](CS)NC(=O)[C@@H](NC(=O)[C@H](CCCNC(=N)N)NC(=O)[C@H](C)NC(=O)[C@H](CS)NC(=O)[C@@H]1CCCN1C(=O)[C@@H](N)CCCCN)C(C)C)C(=O)O [Her2/neu.336] (H-KPCARVCYGL-OH)
pIC50 [2, 6]: 6.83 | No. of B7 Alleles Crossbound [3]: 1

CC[C@H](C)[C@H](NC(=O)[C@H](CC(=O)O)NC(=O)[C@@H]1CCCN1C(=O)[C@H](CC(C)C)NC(=O)[C@H](CO)NC(=O)[C@H](CC(=O)O)NC(=O)[C@@H]1CCCN1C(=O)[C@@H](N)Cc1c[nH]c2ccccc12)C(=O)O [Her2/neu.415.I8]
pIC50 [2]: 7.15 | No. of B7 Alleles Crossbound [3]: 1

CC[C@H](C)[C@H](NC(=O)[C@@H](NC(=O)[C@H](Cc1c[nH]cn1)NC(=O)[C@H](CC(C)C)NC(=O)[C@H](CC(C)C)NC(=O)[C@H](C)NC(=O)[C@H](CCC(N)=O)NC(=O)[C@H](Cc1c[nH]cn1)NC(=O)[C@@H]1CCCN1C(=O)[C@@H](N)Cc1ccccc1)[C@@H](C)O)C(=O)O [Her2/neu.488.F1I10]
pIC50 [2, 6]: 7.07 | No. of B7 Alleles Crossbound [3]: 4

CC[C@H](C)[C@H](NC(=O)[C@H](CO)NC(=O)[C@@H](NC(=O)[C@@H](NC(=O)[C@H](CO)NC(=O)[C@@H](NC(=O)[C@H](CC(C)C)NC(=O)[C@@H]1CCCN1C(=O)[C@@H](N)Cc1ccccc1)[C@@H](C)O)[C@@H](C)CC)[C@@H](C)CC)C(=O)O [Her2/neu.649.F1I9]
No. of B7 Alleles Crossbound [3]: 5

AIKVLRENTSPKANK
DR3 binding data [1, 4]: 0.0075 | DR3 binding data [1, 5]: 0.0075

DLTLGLEPSEEEAPR
DR3 binding data [1, 4]: −0.0025 | DR3 binding data [1, 5]: −0.0025

DNLYYWDQDPPERGA
DR3 binding data [1, 5]: −0.0025

DTILWKDIFHKNNQL
DR3 binding data [1, 5]: −0.0027

ETEYHADGGKVPIKW
DR3 binding data [1, 5]: −0.0027

FPGGLRELQI [Her2/neu.133.F1I10]
pIC50 [2, 6]: 6.51

FPLNNTTPV [Her2/neu.121.F1]
pIC50 [2, 6]: 9.70

FVVIQNEDLGPASPL
DR3 binding data [1, 4]: −0.0025 | DR3 binding data [1, 5]: −0.0025

GDLVDAEEYLVPQQG
DR3 binding data [1, 5]: 0.0250

KNGVVKDVFAFGGAV
DR3 binding data [1, 5]: −0.0025

LVTYNTDTFESMPNP
DR3 binding data [1, 5]: −0.0027

MRRLLQETELVEPLT
DR3 binding data [1, 5]: −0.0027

NKEILDEAYVMAGVG
DR3 binding data [1, 5]: 0.0047

NQEVTAEDGTQRCEK
DR3 binding data [1, 5]: −0.0027

SDVFDGDLGMGAAKG
DR3 binding data [1, 5]: −0.0025

SLAFLPESFDGDPAS
DR3 binding data [1, 5]: −0.0027

SLSFLQDIQEVQGYV
DR3 binding data [1, 5]: 0.0520

TAPLQPEQLQVEETL
DR3 binding data [1, 5]: 0.0023

TVPLPSETDGYVAPL
DR3 binding data [1, 5]: −0.0025
